In US7355074B2, “Compounds having aromatic rings and side-chain amide-functionality and a method for transporting monovalent anions across biological membranes using the same” (The University of Maryland, priority 2003, dated 2008):
Marks after values point to notes of the source that are not given here.

Legend:
[1] = pH-stat fluorescent transport assay with oligophenoxyacetamides (HPTS-loaded liposomes); assay type: biochemical; conditions: 100 mM NaCl inside and outside; 50 μm (10 mol % ligand to lipid ratio)
Method: FIGS. 1A and 1B are derived from of pH-stat fluorescent assays with oligophenoxyacetamide compounds 1-6 described herein. Suspensions of EYPC LUVs containing the pH sensitive dye pyranine (ex 405 nm and 460 nm em 510 nm) in a phosphate buffer were used (0.5 mM of lipid, 10 mM NanH3-nPO4 n=1, 2, pH 6.4 100 mM NaCl inside and outside) (A) illustrates initial pseudo-first order rate constants in the presence of 5 μm of ionophores 1-6 (1 mol % injection of 20 μl of 0.5 mM DMSO solution of 1-6 into 1.9 mL of vesicular suspension was followed by injection of 21 μl of 0.5 M NaOH and final lysis of liposomes with Triton X-100; (B) illustrates initial pseudo-first order rate constants assessed for various concentrations of oligomeric ionophores 2-6. The same experimental protocol as in (A) was used. Legend for traces denotes use of oligocompounds 2, 3, 4, 5, 6.
Liposome Preparation for Fluorimetric Assays. Egg yolk L-α-phosphatidylcholine (EYPC ethanol solution, […], 79 μmol) was dissolved in a CHCl3/MeOH mixture, the solution was evaporated under reduced pressure and the resulting thin film was dried under high vacuum for 2 h. The lipid film was hydrated in 1.2 mL of phosphate buffer (10 mM sodium phosphate, pH=6.4, 75-100 mM MnX, M=N^+, K^+, X=Cl^−, SO4^2−, n=1,2) containing 10 μM HPTS (pyranine, 8-hydroxypyrene-1,3,6-trisulfonic acid trisodium salt) for 40 min. During hydration, the suspension was submitted to 5 freeze-thaw cycle (liquid nitrogen, water at rt). The large multilamellar liposome suspension (1 mL) was submitted to high-pressure extrusion at rt (21 extrusions through a 0.1 μm polycarbonate membrane afforded a suspension of LUVs with an average diameter of 100 nm). The LUV suspension was separated from extravesicular dye by size exclusion chromatography (SEC) (stationary phase: Sephadex G-10, mobile phase: phosphate buffer) and diluted with the same phosphate buffer to give a stock solution with a lipid concentration of 11 mM (assuming 100% of lipid was incorporated into liposomes).
pH-state transport assays. Typically, 100 μL of HPTS-loaded vesicles (stock solution) was suspended in 1.9 mL of the corresponding buffer and placed into a fluorimetric cell. The emission of HPTS at 510 nm was monitored with excitation wavelengths at 403 and 460 nm simultaneously. During the experiment, 20 μL of a 0-10 mM DMSO solution of the compounds of interest was added (through an injection port), followed by injection of 21 μL of 0.5 M aqueous NaOH. […] Maximal possible changes in dye emission were obtained at the end of each experiment by lysis of the liposomes with detergent (40 μL of 5% aqueous Triton X100). The final transport trace was obtained as a ratio of the emission intensities monitored at 460 and 403 nm and normalized to 100% of transport. Pseudo-first order rate constants were calculated from slopes of the plot of In([H^+ins]−[H^+out]) versus time, here [H^+ins] and [H^+out] are the intravesicular and extravesicular proton concentrations, respectively. The [H^+out] was assumed to remain constant over the course of the experiment, while [H^+ins] values were calculated for each point from the HPTS emission intensities according to the calibration equation pH=1.1684·log(Io/Il)+6.9807, where Io is the emission intensity with excitation at 460 nm and Il is emission intensity with excitation at 403 nm. The calibration was performed by measuring the HPTS emission intensities and the pH values of a […] HPTS solution in 10 mM phosphate buffer containing 100 mM NaCl (see FIG. s3). The absolute values for rate constants varied depending on the age of the vesicular solution and the actual stock solution of liposomes used.

[2] = 1H NMR binding experiment in CDCl3, HCl extraction
Method: FIG. 7 illustrates a series of […] spectra (400 mHz, CDCl3, 22° C.) of calixarene tetrabutylamide in the presence of different species: (A) the compound alone (5 mm); (B) the compound with 1 equiv. of Bu4 NCl; (C) the compound after washing CDCl3 solution of the compound with an aqueous solution of 0.5 m HCl; (D) after washing CDCl3 solution of the compound with an aqueous solution of 0.5 M H2SO4.
To obtain evidence for Cl^− binding by 2, ^1H NMR experiments were run in CDCl3 using n-Bu4-NCl and HCl as Cl^− sources. Anion receptors usually show chemical shift perturbation upon anion complexation, particularly for amide NH protons that hydrogen bond to the anion. […] Calix[4]arene tetrabutylamide 2 does, however, bind HCl. Thus, shaking a CDCl3 solution of 2 with aqueous HCl led to disappearance of the amide NH proton and a significant upfield shift of the […] protons (FIG. 4c).

[3] = pH-assisted fluorimetric transport assay with calixarene amides (HPTS-loaded liposomes); assay type: biochemical
Method: The ability of 1 and 2 to mediate ion flux across a lipid bilayer was studied fluorimetrically. A solution of 1 or 2 was added to a suspension of EYPC large unilamellar vesicles (LUVs) containing the pH-sensitive dye pyranine. An NaOH solution was added to the extravesicular buffer to create a gradient of approximately one pH unit. The resulting electrostatic potential, caused by proton efflux from the liposomes, can be compensated by cation influx or anion efflux, as mediated by the exogenous ligand. Ion transport across the membrane was signaled by the increase in relative fluorescence that accompanied the rise in intravesicular pH.
Liposome Preparation. EYPC HPTS-Containing LUVs, egg yolk 1-α-phosphatidylcholine (EYPC, 60 mg, […]) was dissolved in a CHCl3MeOH mixture, the solution was evaporated under reduced pressure, and the resulting thin film was dried under high vacuum for 2 h. The lipid film was hydrated in 1.2 mL of phosphate buffer (10 mM sodium phosphage, pH=6.4, 75-100 mM MX, M=Na^+, K^+, Cs^+, X=[…], SO4^2−) containing 10 μM HPTS (pyranine 8-hydroxypyrene-1,3,6-trisulfonic acid trisodium salt) for 2 h. The LUV suspension (1 mL) was submitted to high-pressure extrusion at room temperature (2) extrusions through a 0.1 μM polycarbonate membrane afforded LUVs with a diameter of 100 nm). The LUV suspension was separated from extravesicular dye by size exclusion chromatography (SEC) stationary phase: Sephadex G-10, mobile phase:phosphate buffer) and diluted with the same phosphate buffer to give a stock solution with a lipid concentration of 11 mM (assuming 100% of lipid was incorporated into liposomes).
Fluorimetric Transport Assays. pH-Assisted Transport Assays. Typically, 100 μL of HPTS-loaded vesicles (stock solution) was suspended in 1.85 mL of the corresponding buffer and placed into a fluorimetric cell. HPTS emission at 510 nm was monitored with excitation wavelengths at 403 and 460 nm simultaneously. During the experiment, 20 μL of a 0-10 mM THF solution of the compound of interest was added through an injection port, followed by injection of 21 μL of 0.5 M aqueous NaOH. Addition of the NaOH caused a pH increase of approximately 1 pH unit in the extravesicular buffer. Maximal changes in dye emission were obtained at the end of each experiment by lysis of the liposomes with detergent (40 μL of 5% aqueous Triton x100). The final transport trace was obtained as a ratio of the emission intensities monitored at 460 and 403 nm and normalized to 100% of transport.

[4] = intravesicular pH of LUVs experiencing a Cl- gradient (calixarene amides); assay type: biochemical; conditions: NaCl-loaded LUVs in isosmotic Na2SO4 buffer
Method: FIG. 8 illustrates changes in intravesicular pH upon addition of calixarene tetrabutylamide and calixarene octabutylamide to NaCl^+ loaded vesicles suspended in a sulfate phosphate buffer (emission of HPTS is used to monitor the pH changes in LUVs). At t=60 s, 20 μL of 500 μM of calixarene tetrabutylamide 2 (top trace) or the octabutylamide 3 (bottom trace) was added to 1.95 mL of a LUV suspension to give 1:100 ligand:lipid molar ratio. At t=500 s, 40 μL of 5% Triton X-100 was added. Intravesicular pH values were obtained as a function of the ratio of HPTS emission intensities at 510 nm, when excited at […]. The calibration was performed by measuring the HPTS emission intensities and the pH values of a […] HPTS solution in 10 mM phosphate buffer containing 100 mM NaCl. The calibration equation obtained (pH=1.1684×log (I0I1)+6.9807, r=0.998, where I0 is the emission intensity with excitation at […]) was used to convert the emission intensities into actual pH values.
The pH reached its maximum 250 s after addition of 2 and held constant until the liposomes were lysed with detergent. […] In effect, compound 2 moves […] along with Cl^− down the chloride gradient, consequently building a pH gradient across the membrane. Therefore, NaCl filled vesicles lose Cl^− and H^+ upon addition of 2 and become more alkaline.
Calcein-Release Assay. Calcein-loaded vesicles (100 μL of the stock solution), filled with a saline phosphate buffer (10 mM sodium phosphate, pH 6.4, […] NaCl), were suspended in 1.85 mL of an isoosmotic phosphate sulfate buffer (10 mM sodium phosphate, pH 6.4^−75 mM (Na2SO4) and placed into a fluorimetric cell. HPTS emission at 510 nm was monitored with excitation wavelengths at 403 and 460 nm simultaneously. During the experiment, 20 μL of a 0-500 μM THF solution of the compound of interest was added through an injection port. Intravesicular pH values were obtained as a function of the ratio of HPTS emission intensities at 510 nm, when excited at 403 and 460 nm. […]

Structure (SMILES) | transport activity [1] | HCl binding [2] | ion transport ([3]; 50 μM) | change of intravesicular pH / pH gradient formation [4] | drop in rate constant on changing extravesicular electrolyte from NaCl to CsCl [3] [fold] | transport activity when buffer changed from NaCl to Na2SO4 [3] | Initial Pseudo-first Order Transport Rate Constants, Na2SO4 ([3]; 5 μM, 100 mM Na2SO4 inside pH 6.4 and outside pH 7.4, not corrected for unmediated exchange) | Initial Pseudo-first Order Transport Rate Constants, CsCl ([3]; 5 μM, 100 mM NaCl inside pH 6.4, 100 mM CsCl outside pH 7.4, not corrected for unmediated exchange) | Initial Pseudo-first Order Transport Rate Constants, KCl ([3]; 5 μM, 100 mM NaCl inside pH 6.4, 100 mM KCl outside pH 7.4, not corrected for unmediated exchange) | Initial Pseudo-first Order Transport Rate Constants, NaCl ([3]; 5 μM, 100 mM NaCl inside pH 6.4, 100 mM NaCl outside pH 7.4, not corrected for unmediated exchange) | rate constant k of ion transport ([3]; Na2SO4 loaded vesicles in isotonic buffer) [s⁻¹] | rate constant k of ion transport ([3]; NaCl buffer) [s⁻¹] | cation selectivity of ion transport ([3]; buffers containing Na, K or Cs)
CCCCNC(=O)COc1ccccc1 [Monomer 1, N-butyl-2-phenoxyacetamide] | some activity | no HCl binding | no ion transport | – | – | – | – | – | – | – | – | – | –
CCCCN(CCCC)C(=O)COc1c2cccc1Cc1cccc(c1OCC(=O)N(CCCC)CCCC)Cc1cccc(c1OCC(=O)N(CCCC)CCCC)Cc1cccc(c1OCC(=O)N(CCCC)CCCC)C2 [calix[4]arene octabutylamide 3, Calix[4]arene Octabutylamide] | – | – | – | did not result in formation of a pH gradient | 3.5 | still mediated significant ion transport | 9.1^b,d ×10^−3 s^−1 | 5.4^b,c ×10^−3 s^−1 | 12^b,c ×10^−3 s^−1 | 19^b,c ×10^−3 s^−1 | 0.0091 | 0.019 | discriminates between monovalent cations
